Columns and labels:
KRas^G12D = target: T1, KRas^G12D (Homo sapiens, UniProt P01116, G12D); assay: KRas binding assay (TR-FRET tracer displacement), KRas G12D
T1 construct: Biotinylated KRas (corresponding to amino acids 1-169, produced at Accelegan Inc.); biotin (biotinylated); purchased Accelegan Inc

KRas^G12R = target: T2, KRas^G12R (Homo sapiens, UniProt P01116, G12R); assay: KRas binding assay (TR-FRET tracer displacement), KRas G12R
T2 construct: Biotinylated KRas (corresponding to amino acids 1-169, produced at Accelegan Inc.); biotin (biotinylated); purchased Accelegan Inc

KRas^G12V = target: T3, KRas^G12V (Homo sapiens, UniProt P01116, G12V); assay: KRas binding assay (TR-FRET tracer displacement), KRas G12V
T3 construct: Biotinylated KRas (corresponding to amino acids 1-169, produced at Accelegan Inc.); biotin (biotinylated); purchased Accelegan Inc

[1] = system: KRas-mediated phosphorylation of ERK in MKN1 cells; assay: Inhibition of KRas-mediated phosphorylation of ERK (Cisbio HTRF pERK), MKN1 cells; format: cell-based; conditions: Homo sapiens, MKN-1
Method in brief: (§1)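 HTRF pERK read-out; 6,000 cells/well, RPMI_10% FBS, overnight 37° C./5% CO2; 4 h covered incubation at RT before reading.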

[2] = system: KRas-mediated phosphorylation of ERK in PSN1 cells; assay: Inhibition of KRas-mediated phosphorylation of ERK (Cisbio HTRF pERK), PSN1 cells; format: cell-based; conditions: Homo sapiens
Method in brief: as §1

[3] = system: KRas-mediated phosphorylation of ERK in AsPC-1 cells; assay: Inhibition of KRas-mediated phosphorylation of ERK (Cisbio HTRF pERK), AsPC-1 cells; format: cell-based; conditions: for IC50: HTRF pERK; for inhibition at 0.1 µM: ASPC1, 3 h
Method in brief: (§2)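 Min control wells contained 0.2 uM Trametinib, while test compounds ran as 10 doses (3-fold, top 10 uM; 0.8% DMSO final) on cells for 3 hrs. After 40 mins lysis at 4° C, lysates were probed with HTRF antibodies for 2 hrs at room temperature.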

[4] = system: KRas-mediated phosphorylation of ERK in H727 cells; assay: Inhibition of KRas-mediated phosphorylation of ERK (Cisbio HTRF pERK), H727 cells; format: cell-based; conditions: for IC50: HTRF pERK; for inhibition at 0.1 µM: NCI-H727, 3 h
Method in brief: as §2

[5] = system: KRas-mediated phosphorylation of ERK in A549 cells; assay: Inhibition of KRas-mediated phosphorylation of ERK (Cisbio HTRF pERK), A549 cells; format: cell-based; conditions: for IC50 / inhibition at 0.1 µM: Homo sapiens; for IC50: HTRF pERK; for inhibition at 0.1 µM: A549, 3 h
Method in brief: (§3)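 6,000 cells/well; cpd 10 uM top, 3-fold x10, 0.8% DMSO final; 3 hr incubation; Min ctrl Trametinib 0.2 uM; lysis 40 min 4° C shaking; d2 + Cryptate Ab mix, 2 hr RT; HTRF read.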

[6] = system: KRas-mediated phosphorylation of ERK in H460 cells; assay: Inhibition of KRas-mediated phosphorylation of ERK (Cisbio HTRF pERK), H460 cells; format: cell-based; conditions: for IC50 / inhibition at 0.1 µM: Homo sapiens; for IC50: NCI-H460, HTRF pERK; for inhibition at 0.1 µM: NCI-H460, 3 h
Method in brief: as §2

[7] = system: KRas-mediated phosphorylation of ERK in HCT116 cells; assay: Inhibition of KRas-mediated phosphorylation of ERK (Cisbio HTRF pERK), HCT116 cells; format: cell-based; conditions: for IC50 / inhibition at 0.1 µM: Homo sapiens; for IC50: HCT-116, HTRF pERK; for inhibition at 0.1 µM: HCT-116, 3 h
Method in brief: as §3

[8] = system: KRas-mediated phosphorylation of ERK in H358 cells; assay: Inhibition of KRas-mediated phosphorylation of ERK (Cisbio HTRF pERK), H358 cells; format: cell-based; conditions: for IC50 / inhibition at 0.1 µM: Homo sapiens; for IC50: NCI-H358, HTRF pERK; for inhibition at 0.1 µM: NCI-H358, 3 h
Method in brief: as §2

[9] = Homo sapiens, ASPC1, AsPC-1 cells
[10] = Homo sapiens, NCI-H727, H727 cells
[11] = single point, 100 nM compound, 3 hrs, 0.1 µM
[12] = single point, 100 nM compound, 3 hrs
[13] = Homo sapiens, single point, 100 nM compound, 3 hrs, AsPC-1 cells
[14] = Homo sapiens, single point, 100 nM compound, 3 hrs, H727 cells

T3 sequence (P01116 1-169 isoform P01116-2 G12V): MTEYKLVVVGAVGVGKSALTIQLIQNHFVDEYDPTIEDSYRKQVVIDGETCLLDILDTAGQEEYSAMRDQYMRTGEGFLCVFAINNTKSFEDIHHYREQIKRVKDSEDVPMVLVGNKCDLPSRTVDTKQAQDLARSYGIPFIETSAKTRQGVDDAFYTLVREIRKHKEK
T2 sequence (P01116 1-169 isoform P01116-2 G12R): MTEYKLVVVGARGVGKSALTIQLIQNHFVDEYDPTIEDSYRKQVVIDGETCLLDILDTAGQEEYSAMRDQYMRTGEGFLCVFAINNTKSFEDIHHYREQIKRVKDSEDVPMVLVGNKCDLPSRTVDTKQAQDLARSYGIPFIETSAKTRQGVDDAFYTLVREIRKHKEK
T1 sequence (P01116 1-169 isoform P01116-2 G12D): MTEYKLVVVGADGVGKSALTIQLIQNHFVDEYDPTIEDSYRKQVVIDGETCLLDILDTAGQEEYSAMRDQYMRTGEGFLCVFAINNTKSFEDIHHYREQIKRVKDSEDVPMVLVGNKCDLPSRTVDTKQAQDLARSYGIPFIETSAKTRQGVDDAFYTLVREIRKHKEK

Row | Compound | IC50 (KRas^G12D) [nM] | IC50 (KRas^G12R) [nM] | IC50 (KRas^G12V) [nM] | IC50 [1] [nM] | IC50 [2] [nM] | IC50 [3, 9] [nM] | IC50 [4, 10] [nM] | IC50 [5] [nM] | IC50 [6] [nM] | IC50 [7] [nM] | IC50 [8] [nM] | inhibition at 0.1 µM [5, 12] [%] | inhibition at 0.1 µM [6, 12] [%] | inhibition at 0.1 µM [7, 12] [%] | inhibition at 0.1 µM [8, 12] [%] | further results
1 | C[C@@H]1C[C@@H]1c1c(Cl)cc2[nH]ncc2c1-c1ncc2c(N3CCC[C@]4(C3)NC(=O)NC4=O)nc(OCC34CCCN3CCC4)nc2c1F (atropisomer, axis not shown) [Example 887, (R)-7-(7-((R)-6-chloro-5-((1S,2R)-2-methylcyclopropyl)-1H-indazol-4-yl)-8-fluoro-2-((tetrahydro-1H-pyrrolizin-7a(5H)-yl)methoxy)pyrido[4,3-d]pyrimidin-4-yl)-1,3,7-triazaspiro[4.5]decane-2,4-dione] | 5 | 2 | 3 | 1240 | > 10000 | > 10000 | > 10000 | > 10000 | 7040 | > 10000 | 2540 | – | – | – | – | –
2 | CCc1c(F)ccc2cc(O)cc(-c3ncc4c(N5CC6CCC(C5)C6C#N)nc(OC[C@@]56CCCN5C[C@H](F)C6)nc4c3F)c12 (single isomer, unassigned) [Example 561] | 7 | < 2 | < 2 | 1 | > 10000 | – | – | 4 | 5 | 24 | 3 | – | – | – | – | IC50 ([3]; AsPC-1 cells): 80 nM; Inhibition (HTRF % at 100 nM) of KRas-mediated Phosphorylation of ERK, AsPC-1 ([3]; single point, 100 nM compound, 3 hrs, AsPC-1 cells, 0.1 µM): 30%; IC50 ([4]; H727 cells): 13 nM; Inhibition (HTRF % at 100 nM) of KRas-mediated Phosphorylation of ERK, H727 ([4]; single point, 100 nM compound, 3 hrs, H727 cells, 0.1 µM): 74%; Inhibition (HTRF % at 100 nM) of KRas-mediated Phosphorylation of ERK, A549 [5, 11]: 103%; Inhibition (HTRF % at 100 nM) of KRas-mediated Phosphorylation of ERK, H460 [6, 11]: 99%; Inhibition (HTRF % at 100 nM) of KRas-mediated Phosphorylation of ERK, HCT116 [7, 11]: 63%; Inhibition (HTRF % at 100 nM) of KRas-mediated Phosphorylation of ERK, H358 [8, 11]: 99%
3 | CCc1c(F)ccc2cc(O)cc(-c3ncc4c(N5C[C@H]6C[C@@H](C5)C(O)C6O)nc(OC[C@@]56CCCN5C[C@H](F)C6)nc4c3F)c12 (single isomer, unassigned) [Example 570] | 12 | < 2 | 3 | 56 | > 10000 | 1770 | 280 | 542 | – | – | – | 26 | 38 | 26 | 69 | –
4 | CCc1c(F)ccc2cc(O)cc(-c3ncc4c(N5CCC(C#N)CC5)nc(OC[C@@]56CCCN5C[C@H](F)C6)nc4c3F)c12 [Example 544, 1-(7-(8-ethyl-7-fluoro-3-hydroxynaphthalen-1-yl)-8-fluoro-2-(((2R,7aS)-2-fluorohexahydro-1H-pyrrolizin-7a-yl)methoxy)pyrido[4,3-d]pyrimidin-4-yl)piperidine-4-carbonitrile] | 22 | 4 | 3 | 25 | > 10000 | 455 | 79 | – | – | – | – | 59 | 46 | 5 | 67 | inhibition at 0.1 µM [3, 13]: -13%; inhibition at 0.1 µM [4, 14]: 30%
5 | CCc1c(F)ccc2cc(O)cc(-c3ncc4c(NCc5cc(C(=O)N(C)C)n(C(F)F)n5)nc(OC[C@@]56CCCN5C[C@H](F)C6)nc4c3F)c12 [Example 662, 1-(difluoromethyl)-3-(((7-(8-ethyl-7-fluoro-3-hydroxynaphthalen-1-yl)-8-fluoro-2-(((2R,7aS)-2-fluorohexahydro-1H-pyrrolizin-7a-yl)methoxy)pyrido[4,3-d]pyrimidin-4-yl)amino)methyl)-N,N-dimethyl-1H-pyrazole-5-carboxamide] | 3 | 3 | < 2 | 57 | > 10000 | 837 | 274 | – | – | – | – | 22 | – | – | 22 | –
6 | CCc1c(F)ccc2cc(O)cc(-c3ncc4c(N5CCCn6nc(S(=O)(=O)N(C)C)cc6C5)nc(OC[C@@]56CCCN5C[C@H](F)C6)nc4c3F)c12 [Example 685, 5-(7-(8-ethyl-7-fluoro-3-hydroxynaphthalen-1-yl)-8-fluoro-2-(((2R,7aS)-2-fluorohexahydro-1H-pyrrolizin-7a-yl)methoxy)pyrido[4,3-d]pyrimidin-4-yl)-N,N-dimethyl-5,6,7,8-tetrahydro-4H-pyrazolo[1,5-a][1,4]diazepine-2-sulfonamide] | < 2 | 6 | 8 | 9 | > 10000 | 245 | 1670 | 1090 | 188 | 359 | – | – | – | – | – | –
7 | CCc1c(F)ccc2cc(O)cc(-c3ncc4c(N5CCCC6(CNC(=O)N6)C5)nc(OC[C@]56CCCN5[C@H](COC(=O)N(C)C)CC6)nc4c3F)c12 (stereo partly drawn) [Example 711, ((3S,7aR)-7a-(((7-(8-ethyl-7-fluoro-3-hydroxynaphthalen-1-yl)-8-fluoro-4-(2-oxo-1,3,7-triazaspiro[4.5]decan-7-yl)pyrido[4,3-d]pyrimidin-2-yl)oxy)methyl)hexahydro-1H-pyrrolizin-3-yl)methyl dimethylcarbamate] | < 2 | < 2 | < 2 | 21 | 6220 | 121 | 196 | – | 109 | 247 | – | 43 | – | – | 78 | –
8 | CCc1c(F)ccc2cc(O)cc(-c3ncc4c(N5CCCC6(CC(=O)N6)C5)nc(OC[C@]56CCCN5[C@H](COC(=O)N(C)C)CC6)nc4c3F)c12 (stereo partly drawn) [Example 715, ((3S,7aR)-7a-(((7-(8-ethyl-7-fluoro-3-hydroxynaphthalen-1-yl)-8-fluoro-4-(2-oxo-1,6-diazaspiro[3.5]nonan-6-yl)pyrido[4,3-d]pyrimidin-2-yl)oxy)methyl)hexahydro-1H-pyrrolizin-3-yl)methyl dimethylcarbamate] | 4 | 4 | 2 | 43 | 3620 | 97 | 153 | 344 | – | – | – | – | 42 | 8 | – | –
9 | CCc1c(F)ccc2cc(O)cc(-c3ncc4c(N5CCC[C@@](C)(O)C5)nc(OC[C@]56CCCN5[C@H](CNS(=O)(=O)N(C)C)CC6)nc4c3F)c12 [Example 720, N,N-dimethyl-(((3S,7aR)-7a-(((7-(8-ethyl-7-fluoro-3-hydroxynaphthalen-1-yl)-8-fluoro-4-((R)-3-hydroxy-3-methylpiperidin-1-yl)pyrido[4,3-d]pyrimidin-2-yl)oxy)methyl)hexahydro-1H-pyrrolizin-3-yl)methyl)aminosulfonamide] | < 2 | < 2 | < 2 | 6 | 1760 | 19 | 47 | – | – | – | – | 64 | 80 | 51 | 85 | inhibition at 0.1 µM [3, 13]: 70%; inhibition at 0.1 µM [4, 14]: 43%
10 | CCc1c(F)ccc2cc(O)cc(-c3ncc4c(N5CCCCC5)nc(OC[C@@]56CCCN5C[C@H](F)C6)nc4c3F)c12 [Example 900, 5-ethyl-6-fluoro-4-(8-fluoro-2-(((2R,7aS)-2-fluorotetrahydro-1H-pyrrolizin-7a(5H)-yl)methoxy)-4-(piperidin-1-yl)pyrido[4,3-d]pyrimidin-7-yl)naphthalen-2-ol] | – | – | – | 3 | > 10000 | 213 | 240 | 136 | 96 | 504 | 82 | – | – | – | – | –

— patent publication US20260015350A1, “AZAQUINAZOLINE PAN-KRAS INHIBITORS” (Mirati Therapeutics, Inc., priority 2022, published 2026)
